Laboratory results from article PMC4775085 (ACS chemical neuroscience, 2015).
Where “and” joins values, the source holds several entries; their conditions need not be identical. Identical values can stand only once.

Key:
HDAC7 = molecular target: T1, HDAC7 (Homo sapiens, UniProt Q8WUI4); test: HDAC7 enzymatic inhibition assay
T1 sequence (Q8WUI4 1-952): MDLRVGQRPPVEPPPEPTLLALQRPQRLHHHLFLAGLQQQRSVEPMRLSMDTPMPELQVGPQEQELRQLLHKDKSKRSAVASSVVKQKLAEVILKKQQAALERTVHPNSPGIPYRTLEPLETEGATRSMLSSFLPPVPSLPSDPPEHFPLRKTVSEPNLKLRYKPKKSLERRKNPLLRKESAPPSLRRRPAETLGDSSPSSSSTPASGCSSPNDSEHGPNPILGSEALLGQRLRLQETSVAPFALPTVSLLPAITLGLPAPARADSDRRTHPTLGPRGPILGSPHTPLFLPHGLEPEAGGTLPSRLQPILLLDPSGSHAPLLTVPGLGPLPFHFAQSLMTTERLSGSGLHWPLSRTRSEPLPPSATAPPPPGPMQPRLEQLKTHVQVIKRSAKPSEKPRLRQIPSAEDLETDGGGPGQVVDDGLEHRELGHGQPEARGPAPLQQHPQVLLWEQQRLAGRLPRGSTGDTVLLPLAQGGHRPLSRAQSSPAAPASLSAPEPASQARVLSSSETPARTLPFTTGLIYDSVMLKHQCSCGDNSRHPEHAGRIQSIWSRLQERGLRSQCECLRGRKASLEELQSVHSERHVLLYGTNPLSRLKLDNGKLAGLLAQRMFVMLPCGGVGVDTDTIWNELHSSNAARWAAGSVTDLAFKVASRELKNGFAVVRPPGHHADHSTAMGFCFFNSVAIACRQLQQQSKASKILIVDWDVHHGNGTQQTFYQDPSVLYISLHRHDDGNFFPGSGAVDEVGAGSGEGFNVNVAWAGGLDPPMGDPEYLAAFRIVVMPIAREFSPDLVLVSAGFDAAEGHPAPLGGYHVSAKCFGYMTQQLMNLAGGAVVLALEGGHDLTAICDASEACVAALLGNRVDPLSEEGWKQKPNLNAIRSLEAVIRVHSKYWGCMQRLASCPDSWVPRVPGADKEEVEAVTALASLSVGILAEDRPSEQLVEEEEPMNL

[1] = tested on: acetylated histone 3 in N2a cells; test: Acetylated histone 3/histone 4 ratio in N2a cells by Western blot; format: cell-based, mouse; conditions: overnight, vehicle = 1.00
HDAC6 = molecular target: T2, HDAC6 (Homo sapiens, UniProt Q9UBN7); test: HDAC6 enzymatic inhibition assay; format: biochemical
T2 sequence (Q9UBN7 1-1215): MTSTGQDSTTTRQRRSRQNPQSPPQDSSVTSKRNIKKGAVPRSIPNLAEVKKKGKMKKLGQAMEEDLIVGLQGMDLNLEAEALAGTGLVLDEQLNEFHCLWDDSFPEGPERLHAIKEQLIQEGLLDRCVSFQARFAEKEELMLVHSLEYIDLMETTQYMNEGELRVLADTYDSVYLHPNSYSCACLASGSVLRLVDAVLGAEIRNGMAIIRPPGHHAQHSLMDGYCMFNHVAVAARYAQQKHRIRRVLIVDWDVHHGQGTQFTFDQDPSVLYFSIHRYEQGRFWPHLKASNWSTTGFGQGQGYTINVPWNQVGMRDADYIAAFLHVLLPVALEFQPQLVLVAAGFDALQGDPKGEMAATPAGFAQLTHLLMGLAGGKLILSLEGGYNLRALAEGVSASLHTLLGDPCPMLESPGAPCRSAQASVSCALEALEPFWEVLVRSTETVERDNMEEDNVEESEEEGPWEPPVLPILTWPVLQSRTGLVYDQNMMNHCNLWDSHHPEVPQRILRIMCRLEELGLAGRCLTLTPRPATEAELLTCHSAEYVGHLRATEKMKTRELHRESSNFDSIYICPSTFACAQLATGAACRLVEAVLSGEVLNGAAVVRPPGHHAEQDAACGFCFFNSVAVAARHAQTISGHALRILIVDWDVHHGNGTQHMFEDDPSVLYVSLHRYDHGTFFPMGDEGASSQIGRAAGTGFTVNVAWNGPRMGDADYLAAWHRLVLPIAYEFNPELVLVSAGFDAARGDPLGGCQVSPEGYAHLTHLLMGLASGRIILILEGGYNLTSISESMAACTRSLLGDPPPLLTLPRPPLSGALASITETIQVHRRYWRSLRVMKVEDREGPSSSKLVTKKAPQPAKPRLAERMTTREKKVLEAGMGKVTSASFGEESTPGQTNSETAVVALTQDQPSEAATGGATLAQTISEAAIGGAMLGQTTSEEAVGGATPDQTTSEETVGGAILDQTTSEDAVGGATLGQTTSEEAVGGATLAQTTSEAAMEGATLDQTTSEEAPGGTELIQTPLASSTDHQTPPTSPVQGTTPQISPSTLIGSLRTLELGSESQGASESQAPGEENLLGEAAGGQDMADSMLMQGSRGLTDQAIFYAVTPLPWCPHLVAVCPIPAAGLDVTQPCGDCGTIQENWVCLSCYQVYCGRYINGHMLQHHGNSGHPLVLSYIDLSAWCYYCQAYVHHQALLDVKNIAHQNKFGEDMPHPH

HDAC2 = HDAC2 (Homo sapiens, UniProt Q92769); test: HDAC2 enzymatic inhibition assay
HDAC1 = HDAC1 (Homo sapiens, UniProt Q13547); test: HDAC1 enzymatic inhibition assay; format: biochemical; conditions: HDAC1 IC50, singlet 10-dose IC50 mode, 3-fold serial dilution starting at 100 μM
HDAC1, sequence (Q13547 whole entry): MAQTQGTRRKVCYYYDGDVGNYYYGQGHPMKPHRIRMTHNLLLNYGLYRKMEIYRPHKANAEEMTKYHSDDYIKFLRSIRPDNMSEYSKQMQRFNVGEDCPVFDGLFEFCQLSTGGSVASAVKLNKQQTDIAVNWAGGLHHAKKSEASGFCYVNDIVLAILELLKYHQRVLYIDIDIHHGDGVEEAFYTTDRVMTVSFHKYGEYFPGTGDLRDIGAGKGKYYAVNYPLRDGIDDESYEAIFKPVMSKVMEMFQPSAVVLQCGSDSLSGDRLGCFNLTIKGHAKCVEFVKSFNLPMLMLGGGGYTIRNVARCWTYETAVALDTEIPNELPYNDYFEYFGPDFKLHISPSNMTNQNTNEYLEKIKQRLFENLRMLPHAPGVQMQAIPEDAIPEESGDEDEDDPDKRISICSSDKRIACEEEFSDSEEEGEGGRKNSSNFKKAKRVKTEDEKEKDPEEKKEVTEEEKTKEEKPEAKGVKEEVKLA

HDAC2, sequence (Q92769 whole entry): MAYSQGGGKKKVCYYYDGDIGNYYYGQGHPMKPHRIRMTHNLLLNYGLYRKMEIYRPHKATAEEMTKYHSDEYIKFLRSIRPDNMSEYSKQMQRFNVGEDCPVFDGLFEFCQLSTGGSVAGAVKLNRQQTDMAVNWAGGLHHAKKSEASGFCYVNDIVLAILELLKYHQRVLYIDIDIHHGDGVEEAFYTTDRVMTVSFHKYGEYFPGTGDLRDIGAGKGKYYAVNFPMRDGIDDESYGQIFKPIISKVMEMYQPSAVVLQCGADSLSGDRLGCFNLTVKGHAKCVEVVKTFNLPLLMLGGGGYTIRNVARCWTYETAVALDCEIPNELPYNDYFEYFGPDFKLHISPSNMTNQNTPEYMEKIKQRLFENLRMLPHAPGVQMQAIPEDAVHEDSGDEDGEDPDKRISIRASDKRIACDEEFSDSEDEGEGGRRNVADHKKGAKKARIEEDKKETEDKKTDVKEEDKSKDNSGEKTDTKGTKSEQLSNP

- IC50 (HDAC7): 211 nM
- IC50 (HDAC6; HDAC6 IC50, singlet 10-dose IC50 mode, 3-fold serial dilution starting at 1 μM): 3.12 nM
- IC50 (HDAC6; IC50 (nM) HDAC6, mean of two experiments ± standard deviation, 10-point enzymatic assay starting from 30 μM, 3-fold serial dilution): 5 nM and 5.2 nM
- Selectivity HDAC1/HDAC6 (HDAC6; ratio of HDAC1 and HDAC6 IC50 of Table 1 (fold)): 562
- IC50 (HDAC2): 7430 nM
- IC50 (HDAC1): 4360 nM
Structure (SMILES): Cc1nc2ccc(F)cc2n1Cc1ccc(C(=O)NO)cc1 [30a, 4-[(6-Fluoro-2-methyl-1-benzimidazolyl)methyl]-N-hydroxybenzamide]
- ratio acetylated H3/H4 (1 μM) mean [1]: did not alter the acetylation of histone 3
